Assays:
Test in all cases: relative viability (nuclei count vs DMSO), 5 days (fraction); higher = more cells survive
Idelalisib + Trametinib = compound: CC[C@H](Nc1ncnc2[nH]cnc12)c1nc2cccc(F)c2c(=O)n1-c1ccccc1 [Idelalisib] + CC(=O)Nc1cccc(-n2c(=O)n(C3CC3)c(=O)c3c(Nc4ccc(I)cc4F)n(C)c(=O)c(C)c32)c1 [Trametinib] (partner 0.02 µM)
Method in brief: (§1)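 For relative viability, nuclei counts in treated wells were divided by those in vehicle wells. Lung cancer cell lines had been pin-tool dosed in 1536-well plates the day after seeding and cultured for 5 days, then fixed and stained in one step (final 0.05% Triton X-100, 1% formaldehyde, 1 ug/ml Hoechst) and imaged at 4×. Doses were one drug alone or a fixed anchor-drug dose plus five library-drug doses (not always all listed) in √10 steps, and values are duplicate-plate medians.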

Idelalisib + Vorinostat = compound: CC[C@H](Nc1ncnc2[nH]cnc12)c1nc2cccc(F)c2c(=O)n1-c1ccccc1 [Idelalisib] + O=C(CCCCCCC(=O)Nc1ccccc1)NO [Vorinostat] (partner 1 µM)
Method in brief: as §1

Idelalisib + Crizotinib = compound: CC[C@H](Nc1ncnc2[nH]cnc12)c1nc2cccc(F)c2c(=O)n1-c1ccccc1 [Idelalisib] + C[C@@H](Oc1cc(-c2cnn(C3CCNCC3)c2)cnc1N)c1c(Cl)ccc(F)c1Cl [Crizotinib] (partner 1 µM)
Method in brief: as §1

Pemetrexed + Luminespib = compound: Nc1nc2[nH]cc(CCc3ccc(C(=O)N[C@@H](CCC(=O)O)C(=O)O)cc3)c2c(=O)[nH]1 [Pemetrexed] + CCNC(=O)c1noc(-c2cc(C(C)C)c(O)cc2O)c1-c1ccc(CN2CCOCC2)cc1 [Luminespib] (partner 0.01 µM)
Method in brief: as §1

Cell Line | relative viability (Idelalisib + Trametinib; first compound 0.04 µM) | relative viability (Idelalisib + Trametinib; first compound 0.1265 µM) | relative viability (Idelalisib + Trametinib; first compound 0.4 µM) | relative viability (Idelalisib + Trametinib; first compound 1.265 µM) | relative viability (Idelalisib + Trametinib; first compound 4 µM) | relative viability (Idelalisib + Vorinostat; first compound 0.04 µM) | relative viability (Idelalisib + Vorinostat; first compound 0.1265 µM) | relative viability (Idelalisib + Vorinostat; first compound 0.4 µM) | relative viability (Idelalisib + Vorinostat; first compound 1.265 µM) | relative viability (Idelalisib + Vorinostat; first compound 4 µM) | relative viability (Idelalisib + Crizotinib; first compound 0.04 µM) | relative viability (Idelalisib + Crizotinib; first compound 0.1265 µM) | relative viability (Idelalisib + Crizotinib; first compound 0.4 µM) | relative viability (Idelalisib + Crizotinib; first compound 1.265 µM) | relative viability (Idelalisib + Crizotinib; first compound 4 µM) | relative viability (Pemetrexed + Luminespib; first compound 0.002 µM) | relative viability (Pemetrexed + Luminespib; first compound 0.006325 µM) | relative viability (Pemetrexed + Luminespib; first compound 0.02 µM) | relative viability (Pemetrexed + Luminespib; first compound 0.06325 µM) | relative viability (Pemetrexed + Luminespib; first compound 0.2 µM)
201T | 0.701 | 0.697 | 0.688 | 0.759 | 0.734 | 1.01 | 0.982 | 0.874 | 0.997 | 0.755 | 1.02 | 1.07 | 0.999 | 1.08 | 1.02 | 1.03 | 1.04 | 1.05 | 1.1 | 1.09
A549 |  |  |  |  |  |  |  |  |  |  | 0.902 | 0.899 | 0.669 | 0.751 | 0.539 |  |  |  |  | 
A-427 | 0.843 | 0.812 | 0.667 | 0.78 | 0.7 | 0.921 | 0.889 | 0.833 | 0.901 | 0.874 | 1.05 | 1.04 | 0.789 | 1.05 | 0.755 | 0.912 | 0.923 | 0.968 | 0.793 | 0.956
ABC-1 |  |  |  |  |  | 1.01 | 1.13 | 0.751 | 1.03 | 1.39 | 0.95 | 1.23 | 1.14 | 1.04 | 0.902 |  | 0.521 | 0.709 | 0.777 | 0.637
BEN | 1.01 | 0.98 | 0.929 | 0.735 | 0.766 | 0.531 | 0.53 | 0.552 | 0.59 | 0.514 | 0.875 | 1.06 | 0.751 | 0.886 | 0.661 | 0.491 | 0.435 | 0.374 | 0.484 | 0.559
CAL-12T | 0.422 | 0.28 | 0.276 | 0.363 | 0.339 | 0.831 | 0.689 | 0.65 | 0.704 | 0.648 | 0.769 | 0.636 | 0.562 | 0.635 | 0.518 | 0.307 | 0.352 | 0.38 | 0.363 | 0.557
COR-L23 | 0.603 | 0.639 | 0.538 | 0.62 | 0.578 | 0.535 | 0.396 | 0.396 | 0.535 | 0.421 | 0.881 | 0.678 | 0.67 | 0.712 | 0.393 | 0.639 | 0.63 | 0.771 | 0.358 | 0.176
COR-L 105 | 0.518 | 0.41 | 0.41 | 0.456 | 0.461 | 0.859 | 0.876 | 0.778 | 0.724 | 1.11 | 0.702 | 0.948 | 0.709 | 0.778 | 0.775 | 0.77 | 0.834 | 0.673 | 0.862 | 0.729
Calu-6 |  |  |  |  |  |  |  |  |  |  | 0.866 | 0.822 | 0.759 | 0.832 | 0.774 |  |  |  |  | 
ChaGo-K-1 | 0.945 | 0.907 | 0.865 | 0.906 | 0.913 | 0.832 | 0.702 | 0.695 | 0.82 | 0.732 | 1.38 | 1.13 | 1.1 | 1.15 | 1.17 | 0.582 | 0.577 | 0.608 | 0.47 | 0.239
EBC-1 |  |  |  |  |  |  |  |  |  |  | 0.202 | 0.185 | 0.172 | 0.204 | 0.202 |  |  |  |  | 
EKVX | 0.332 | 0.406 | 0.352 | 0.334 | 0.278 | 0.726 | 0.792 | 0.676 | 0.703 | 0.399 | 0.83 | 0.897 | 0.633 | 0.753 | 0.752 | 0.968 | 0.876 | 0.977 | 0.816 | 0.784
EMC-BAC-2 | 0.953 | 0.875 | 0.795 | 0.863 | 0.859 | 0.639 | 0.42 | 0.419 | 0.496 | 0.633 | 0.788 | 0.796 | 0.676 | 0.742 | 0.732 | 1.15 | 1.1 | 1.11 | 1.06 | 1.18
EPLC-272H | 0.311 | 0.291 | 0.254 | 0.257 | 0.216 | 0.422 | 0.405 | 0.431 | 0.292 | 0.452 | 0.891 | 0.853 | 0.753 | 0.739 | 0.748 | 0.265 | 0.153 | 0.27 | 0.321 | 0.536
H3255 | 0.602 | 0.57 | 0.471 | 0.577 | 0.527 | 0.978 | 0.853 | 0.796 | 0.91 | 0.736 | 0.77 | 0.898 | 0.757 | 0.876 | 0.734 | 0.714 | 0.799 | 0.93 | 0.852 | 0.844
HARA | 0.78 | 0.773 |  | 0.593 | 0.671 | 0.453 | 0.504 | 0.473 | 0.574 | 0.39 | 1.2 | 0.988 | 0.894 | 0.988 | 0.991 | 0.554 | 0.751 | 1.19 | 0.855 | 0.165
HCC-15 | 0.379 | 0.29 | 0.315 | 0.356 | 0.332 | 0.764 | 0.865 | 0.888 | 0.889 | 0.69 | 0.809 | 0.842 | 0.72 | 0.885 | 0.762 | 0.454 | 0.391 | 0.475 | 0.406 | 0.23
HCC-44 | 1.07 | 1.04 | 1.08 | 1.06 | 0.941 | 1.19 | 1.08 | 1.12 | 1.22 | 1.12 | 0.822 | 0.857 | 0.819 | 0.948 | 0.85 | 1.08 | 1.03 | 1.09 | 0.918 | 0.666

Source: the supplement of paper PMC10307832
